Measurements: US20250032573A1, “IMMUNITY-ENHANCING PEPTIDE ANALOGS AND USES THEREOF” (RESEARCH & BUSINESS FOUNDATION SUNGKYUNKWAN UNIVERSITY, priority 2023, published 2025)
Numbered stars: 1 amine (or outer) side, 2 acyl side, 3 side chain; on linkers, the order of the positions; unused ones are H or OH. Square brackets hold non-standard residues; d marks the D form. Peptide text beside a SMILES is read from it. X1 = CSCCN(CC(=O)[*:2])[*:1]

Experiments:
[1] = test system: neutrophils; test: Degranulation activity of neutrophils (beta-hexosaminidase activity); assay type: cell-based
Description: The degranulation activity of neutrophils by the analogs in which each amino acid in the structure of WKYMVm was substituted with a β-amino acid was compared and analyzed by measuring beta-hexosaminidase activity.
The degranulation activity of neutrophils by the peptoid-containing analogs in which a peptoid residue was substituted for K, Y, and M in the structure of WKYMVm was measured.

[2] = FIG. 17
Source text: Table printed on a drawing sheet, FIG. 17

[3] = test system: neutrophils; test: Superoxide anion (ROS) production in neutrophils; assay type: cell-based
Description: The effect of superoxide anion production in neutrophils by the peptoid-comprising analogs in which a peptoid residue was substituted for K, Y, and M in the structure of WKYMVm was measured.

[4] = test system: neutrophils; test: Neutrophil chemotaxis assay using a Boyden chamber; assay type: cell-based
Description: To investigate the effect of the WKYMVm peptide analogs on the regulation of immune cell mobility, which a representative function of FPR, a chemotaxis assay was performed using a Boyden chamber.
To measure the in vitro innate immune activity of four peptides comprising one non-natural β^3-amino acid residue, the effect of enhancing neutrophil mobility was measured.

[5] = test system: neutrophils isolated from mouse bone marrow; test: Cytokine secretion of neutrophils by ELISA, with or without LPS; assay type: cell-based; details: 1 μM
Description: Neutrophils regulate the activity of other immune cells through the production of various types of cytokines. To investigate the effect of the WKYMVm peptide analogs on regulating cytokine production in neutrophils, […], and 24 hours later, the supernatants were collected and subjected to an enzyme-linked immunosorbent assay (ELISA) to measure the amount of cytokine secretion.

[6] = test system: neutrophils
[7] = target: FPR1 (Homo sapiens, UniProt P21462); test: cell-based; details: FPR1-expressing RBL-2H3 cell line
Sequence of FPR1 (P21462 whole entry): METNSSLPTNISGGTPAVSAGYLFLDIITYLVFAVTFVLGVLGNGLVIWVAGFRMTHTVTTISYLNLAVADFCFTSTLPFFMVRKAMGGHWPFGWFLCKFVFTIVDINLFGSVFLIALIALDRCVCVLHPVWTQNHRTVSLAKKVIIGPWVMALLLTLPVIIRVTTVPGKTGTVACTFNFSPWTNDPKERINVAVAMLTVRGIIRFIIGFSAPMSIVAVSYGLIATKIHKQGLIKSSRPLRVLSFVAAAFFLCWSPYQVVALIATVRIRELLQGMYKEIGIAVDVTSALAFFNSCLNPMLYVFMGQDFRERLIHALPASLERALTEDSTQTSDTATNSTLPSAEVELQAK
Description: To investigate whether activation of FPR1, which is important in regulating the activity of innate immune cells, is induced by the WKYMVm peptide analogs, changes in calcium ions were measured in RBL-2H3 cell line, a type of mast cell that artificially expressed FPR1. […] On the other hand, an increase in intracellular calcium ions by WKYMVβm (V is a β-amino acid) through activation of FPR1 was not observed.

[8] = target: FPR2 (Homo sapiens, UniProt P25090); test: cell-based; details: FPR2-expressing RBL-2H3 cell line
Sequence of FPR2 (P25090 whole entry): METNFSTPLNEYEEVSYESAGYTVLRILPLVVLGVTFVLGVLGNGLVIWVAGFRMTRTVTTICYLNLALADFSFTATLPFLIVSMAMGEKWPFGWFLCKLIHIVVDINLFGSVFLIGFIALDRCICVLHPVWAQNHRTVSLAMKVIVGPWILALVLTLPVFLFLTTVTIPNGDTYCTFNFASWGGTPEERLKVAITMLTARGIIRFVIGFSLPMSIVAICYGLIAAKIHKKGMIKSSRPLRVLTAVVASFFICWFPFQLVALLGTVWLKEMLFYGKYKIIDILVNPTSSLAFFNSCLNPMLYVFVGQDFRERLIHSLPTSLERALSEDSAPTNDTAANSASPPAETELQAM
Description: To investigate whether activation of FPR2 is induced by the WKYMVm peptide analogs, changes in calcium ions were measured in RBL-2H3 cell line that artificially expressed FPR2.

[9] = 【FIG 16】
Source text: Table printed on a drawing sheet, 【FIG 16】

| Molecule | degranulation activity of neutrophils [1] | Half-Life [2] [h] | superoxide anion production in neutrophils [3] | effect of enhancing neutrophil mobility, compared with the WKYMVm peptide [4] | neutrophil mobility at 1 μM ([4]; 1 μM) | neutrophil mobility at a low concentration ([4]; low concentration) | effect in regulating the neutrophil activity (LPS-induced cytokines) [5] | calcium ion-increasing effect in neutrophils [6] | increase in intracellular calcium ions through activation of FPR1 (in words) [7] | increase in intracellular calcium ions through activation of FPR2 (in words) [8] | Half-Life [9] [h] |
| --- | --- | --- | --- | --- | --- | --- | --- | --- | --- | --- | --- |
| CSCC[C@@H](NC(=O)[C@@H](NC(=O)CN(CCSC)C(=O)[C@H](Cc1ccc(O)cc1)NC(=O)[C@H](CCCCN)NC(=O)[C@@H](N)Cc1c[nH]c2ccccc12)C(C)C)C(N)=O [M peptoid] (H-WKY[X1]V[dM]-NH2) | promoted the degranulation activity of neutrophils to the extent similar to the WKYMVm peptide | 2.5 | effectively promote superoxide anion production |  |  |  |  |  |  |  |  |
| CSCC[C@H](NC(=O)[C@H](Cc1ccc(O)cc1)NC(=O)[C@H](CCCCN)NC(=O)[C@@H](N)Cc1c[nH]c2ccccc12)C(=O)N[C@H](CC(=O)N[C@H](CCSC)C(N)=O)C(C)C [WKYMVβm] | did not induce the degranulation activity of neutrophils |  | did not induce superoxide anion production | weak activity only at high concentrations | highly active neutrophil mobility promotion effect was induced | not promoted | minimal effect | not exhibited | not observed | not observed |  |
| WKYMVm (W) |  | 2.0 |  |  |  |  |  |  |  |  | 2.6 |
